The values below come from patent publication EP0696280B1, “SUBSTITUTED PYRROLIDIN-3-YL-ALKYL-PIPERIDINES USEFUL AS TACHYKININ ANTAGONISTS” (MERRELL PHARMACEUTICALS INC., priority 1993, dated 1994).

A word on the pIC50: it is the IC50 on a negative log10 scale, so that one unit is a factor of ten.

Assay [1] has as its target T1, NK1 receptor (Homo sapiens, UniProt P25103).
T1 construct: endogenous in cells; host or cells: UC11 cells
In words: Antagonism of NK1 receptor mediated (SP-induced) phosphatidylinositol turnover in UC11 cells. It is filed as cell-based. The following applies: Schild analysis, SP in UC11 cells; mean (95% confidence limits), 2-3 experiments. The procedure: (§1) Tachykinin-mediated inositol phosphate accumulation was measured in UCll or SKLKB82#3 cells in the presence and absence of NK1 or NK2 receptor antagonists, respectively. Tissues were incubated in Krebs-Henseleit buffer at 37°C with 95% O2-5% CO2 gassing. Tissues were then incubated with fresh buffer containing 100 µCi of myo-[2-^3H(N)] inositol at 37°C for 60 min with gentle gassing. After washing twice at room temperature in 5 ml buffer containing 10 mM LiCl, tissues were incubated for 30 min at room temperature with a buffer change at 15 min. Buffer was removed and Krebs-Henseleit buffer (containing 40 µg/ml bacitracin, 4 µg/ml each of leupeptin and chymostatin, 0.1% bovine serum albumin and 10 mM each of thiorphan and LiCl) added. After 15 min, SP was added to UCll cells or NKA to SKLKB82#3 cells at various concentrations to start the reaction. After incubation for 60 min at room temperature the reaction was terminated by addition of 930 µl chloroform: methanol (1:2 by volume) to each tube, followed by 310 µl chloroform and 310 µl doubly distilled water. Samples were vortexed, centrifuged, and 0.9 ml of the aqueous (top) phase removed and added to 2 ml ddH2O. The mixture was vortexed and loaded onto a 50% Bio-Rad AG 1-X8 (formate form, 100-200 mesh) exchange column (Bio-Rad Laboratories, Hercules, CA). The columns were washed, in order, with: 1) 10 ml doubly distilled water, 2) 5 ml of 5 mM disodium tetraborate/60 mM sodium formate, and 3) 5 ml of 1 M ammonium formate/0.1 M formic acid. The third elution was collected and 1 ml counted in 7 ml scintillation fluid. A 50 µl aliquot of the organic (bottom) phase was removed, dried in a scintillation vial and counted in 7 ml scintillation fluid.
(§2) The ratio of DPM in the aqueous phase aliquot (total inositol phosphates) to the DPM in the 50 µl organic phase aliquot (total [^3H]inositol incorporated) was calculated for each sample. Data are expressed as a percent of agonist-induced accumulation of [^3H]-inositol phosphates over basal levels. The ratios in the presence of test compound and/or standards were compared to the ratios for control samples (i.e. no stimulating agonist). Dose-response graphs were constructed and the abilities of the test compounds to inhibit tachykinin-induced phosphatidylinositol turnover determined with the aid of a computer program. […] Data is expressed as percent stimulation of total inositol phosphate accumulation over basal levels and normalized to the maximum response produced by SP. […] Schild analysis is performed using dose response curves (such as those presented in Figures 1a and 1b) to obtain a value indicative of the strength of a competitive antagonist and is expressed as the pA2, which is the negative logarithm of the molar concentration of antagonist which reduces the effect of a dose of agonist to one-half of that expected at the dose of agonist. […]
(§3) Values are mean (95% confidence limits) derived from Schild analysis of 2-3 experiments per compound per receptor.

A further assay has as its target T2, NK2 receptor (Bos taurus, UniProt P05363).
T2 construct: expressed in transfected cells; host or cells: SKLKB82#3 cells
T2 sequence (P05363 1-384): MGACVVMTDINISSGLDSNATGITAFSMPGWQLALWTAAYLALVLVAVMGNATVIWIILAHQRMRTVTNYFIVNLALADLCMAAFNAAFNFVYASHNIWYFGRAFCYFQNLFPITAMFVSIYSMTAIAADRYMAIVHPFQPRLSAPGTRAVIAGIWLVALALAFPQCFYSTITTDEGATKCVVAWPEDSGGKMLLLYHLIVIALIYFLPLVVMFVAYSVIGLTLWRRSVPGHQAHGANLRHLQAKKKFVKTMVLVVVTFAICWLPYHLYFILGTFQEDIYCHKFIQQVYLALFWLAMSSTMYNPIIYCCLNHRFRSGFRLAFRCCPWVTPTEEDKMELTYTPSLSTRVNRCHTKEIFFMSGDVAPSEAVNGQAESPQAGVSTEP
In words: Antagonism of NK2 receptor mediated (NKA-induced) phosphatidylinositol turnover in SKLKB82#3 cells. It is filed as cell-based. The settings on record: Schild analysis, NKA in SKLKB82#3 cells; mean (95% confidence limits), 2-3 experiments. The procedure: as §1, §2, §3

For the next assay, the target named is T3, NK-3 receptor (Cavia porcellus, UniProt P30098).
T3 construct: freshly collected guinea pig cerebral cortex; from tissue; host or cells: guinea pig cerebral cortex membranes
T3 sequence (P30098 1-440): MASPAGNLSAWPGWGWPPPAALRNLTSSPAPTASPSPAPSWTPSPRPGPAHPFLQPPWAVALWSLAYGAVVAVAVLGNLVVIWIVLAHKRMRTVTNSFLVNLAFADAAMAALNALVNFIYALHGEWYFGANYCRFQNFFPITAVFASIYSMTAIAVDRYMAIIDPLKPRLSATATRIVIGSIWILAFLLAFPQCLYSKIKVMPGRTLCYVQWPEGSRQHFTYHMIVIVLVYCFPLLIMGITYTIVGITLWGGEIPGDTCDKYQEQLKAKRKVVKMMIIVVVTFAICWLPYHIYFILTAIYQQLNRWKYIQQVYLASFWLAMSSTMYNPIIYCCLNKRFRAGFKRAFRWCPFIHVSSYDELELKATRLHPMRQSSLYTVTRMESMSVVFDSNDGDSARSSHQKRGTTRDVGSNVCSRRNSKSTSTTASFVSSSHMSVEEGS
In words: Antagonism of iodinated tachykinin binding to NK-3 receptor (125I-Bolton Hunter labeled Lys-4 eledoisin, guinea pig cerebral cortex membranes). As to the method:
(§4) The NK1 receptor affinity of proposed tachykinin antagonists was devaluated in guinea pig lungs (Keystone Biologicals, Cleveland, OH), affinity for the NK2 receptor evaluated in HSKR-1 cells (which are mouse 3T3 fibroblasts expressing the human jejunal NK2 receptor) and NK-3 receptor affinity was evaluated in freshly collected guinea pig cerebral cortex. Tissues or cells were homogenized with a Polytron in 15 volumes of 50 mM Tris-HCl buffer (pH 7.4, 4°C) and centrifuged. The pellet was resuspended in Tris-HCl buffer and was centrifuged; the pellet was washed twice by resuspension. The final pellet was resuspended at a concentration of 40 mg/ml for tissues (guinea pig lung and cerebral cortex) and 20 mg/ml for cells in incubation buffer and remained at room temperature for at least 15 min prior to use. Receptor binding was initiated by addition of 250 µl membrane preparation in duplicate to 0.1 nM of the following radioligands: ^125I-Bolton Hunter Lys-3 labeled substance P; ^125iodohistidyl-1-neurokinin A; and ^125I-Bolton Hunter labeled Lys-4 eledoisin in a final volume of 500 µl of buffer containing 50 mM Tris-HCl (pH 7.4 at room temperature), 0.1% bovine serum albumin, 2 mM MnCl2, 40 µg/ml bacitracin, 4 µg/ml leupeptin and chymostatin, 1 µM thiorphan and various doses of the putative tachykinin antagonists. Incubations were performed at room temperature for 90 min (NK1 receptor assays) or 2 hr (NK2 and NK3 receptor assays); binding was terminated by addition of 50 mM Tris-HCl buffer (pH 7.4, 4°C) and filtration under vacuum through GF/B filters presoaked with 0.1% polyethyleneimine (NK1 receptor assays) or 0.5% bovine serum albumin (NK2 and NK3 receptor assays). Filter bound radioactivity was quantitated in a gamma counter. Nonspecific binding was defined as binding in the presence of 1 µM substance P, neurokinin A, or eledoisin. Specific binding was calculated by subtracting nonspecific binding from total binding. Competition of iodinated SP, NKA, or eledoisin binding by test compounds or standards was expressed as a percentage of this maximum competition. IC50 values (concentration required to inhibit 50% of receptor binding) were generated for each of the test compounds by nonlinear regression using an iterative curve fitting program (GraphPAD Inplot, San Diego, CA).

Assay [2] concerns the target T4, human jejunal NK2 receptor (Homo sapiens, UniProt P21452).
T4 construct: expressed in transfected cells; host or cells: HSKR-1 cells (mouse 3T3 fibroblasts)
T4 sequence (P21452 1-398): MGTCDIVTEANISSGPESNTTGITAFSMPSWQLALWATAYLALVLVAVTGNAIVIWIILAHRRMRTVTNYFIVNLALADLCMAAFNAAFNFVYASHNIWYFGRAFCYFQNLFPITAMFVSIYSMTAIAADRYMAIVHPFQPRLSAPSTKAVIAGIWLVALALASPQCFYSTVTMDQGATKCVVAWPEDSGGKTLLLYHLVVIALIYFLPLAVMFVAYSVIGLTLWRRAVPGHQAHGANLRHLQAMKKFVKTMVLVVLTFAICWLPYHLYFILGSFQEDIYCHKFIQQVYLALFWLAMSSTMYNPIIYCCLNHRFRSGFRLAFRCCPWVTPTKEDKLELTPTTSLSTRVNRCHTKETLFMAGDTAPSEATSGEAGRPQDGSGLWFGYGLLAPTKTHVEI
In words: Antagonism of iodinated tachykinin binding to NK2 receptor (125iodohistidyl-1-neurokinin A, HSKR-1 cell membranes). The settings on record: HSKR-1 cells (mouse 3T3 fibroblasts expressing human jejunal NK2 receptor); mean of several experiments; read-out: NK-2 IC50. The procedure:
as §4

The subject of assay [3] is capsaicin-induced respiratory effects. In words: Antagonism of capsaicin aerosol induced respiratory effects in conscious guinea pigs (whole body plethysmography). It is filed as in vivo, guinea pig. The following applies: for DYSPNEA ONSET / MAXIMUM PRESSURE INCREASE (mmH2O) / SRE NUMBER*: mean and SEM; for SRE NUMBER*: number of coughs/gasps during 19 min exposure. The procedure:
In vivo experiments were performed using male Duncan Hartley guinea pigs (250-350g). Changes in conscious breathing patterns were monitored in four animals simultaneously using modified whole body plethysmography consisting of four small plexiglass boxes each connected to a reference box via Validyne DP 45-16 differential pressure transducers. The 4 boxes were equipped with an air supply line (also used for aerosol delivery) and an exhaust air line. Supply and exhaust lines were of the same length and narrow bore and arose from a common supply chamber and vented to a common exhaust chamber. This system was used to ensure that fluctuations in supply air and atmospheric pressure would remain in phase and be eliminated from the net signal by the differential pressure transducers. The analog pressure signals were digitalized via a Data Translation DT2821 A to D board. Data were collected at a rate of 100 samples/second/animal. Each cycle of pressure change was analyzed using the following parameters: rising and falling slope determined between minimum and maximum pressures, the ratio of rising over falling slope, and the magnitude of the change between initial trough pressure and peak cycle pressure. Using these values (and observing the animals) the pressure cycles were characterized into normal breaths, forced exhalations (apparent by abdominal heaving), significant respiratory events (SREs; usually coughs, less often sneezes or gasps which were characterized by transient, extremely large pressure increases which were distinguishable from noise) and movement/noise with a PCAT 286 running a System V UNIX operating system. Dyspnea was defined as a significant, sustained increase in plethysmograph pressure which was associated with an observable shift to labored breathing in the animal.
During the course of a typical experiment in which airway responsiveness to various bronchoconstricting agents was examined, aerosols were delivered for 19 min (0.33 ml/min) using a DeVilbiss Ultraneb 99 ultrasonic nebulizer and animals monitored during this time. Prior to nebulization, 1 min of resting breathing was collected to establish a baseline pressure. […] The vehicle for nebulization of all bronchoconstrictive agents was phosphate buffered saline (pH 7.4) which elicited no respiratory effects itself. Putative tachykinin antagonists were administered either (i.v.) 20 min prior to onset of aerosol exposure or orally 1 hour prior to onset (to guinea pigs after an overnight fast).
Capsaicin aerosol is known to promote release of the tachykinins SP and NKA from sensory nerves in the airways of guinea pigs which may then act upon NK1 and NK2 receptors, respectively to elicit respiratory effects. […]
Values are mean and SEM of data derived from number of animals indicated in parenthesis. Putative tachykinin antagonists were administered intravenously 20 min prior to initiation of capsaicin aerosol (0.001%). *SRE number indicates the number of coughs/gasps which occurred during the 19 min capsaicin exposure period.
Values are mean and SEM of data derived from number of animals indicated in parenthesis. Putative tachykinin antagonists were administered by oral gavage 1 hr prior to initiation of capsaicin aerosol (0.001%). *SRE number indicates the number of coughs/gasps which occurred during the 19 min capsaicin exposure period.

Assay [4] concerns the target T5, NK1 receptor (Cavia porcellus, UniProt P30547).
T5 construct: Tissues or cells were homogenized with a Polytron in 15 volumes of 50 mM Tris-HCl buffer; tissue Keystone Biologicals, Cleveland, OH; host or cells: guinea pig lung membranes
In words: Antagonism of iodinated tachykinin binding to NK1 receptor (125I-Bolton Hunter Lys-3 labeled substance P, guinea pig lung membranes). As to the method:
as §4

Where [5] appears, read: 25 mg/kg by oral gavage 1 hr prior to capsaicin aerosol (0.001%).
The mark [6] stands for this setting: 50 mg/kg by oral gavage 1 hr prior to capsaicin aerosol (0.001%).

Molecules are shown by their SMILES. pIC50: −log10 of the molar value.

T1 sequence (P25103 whole entry): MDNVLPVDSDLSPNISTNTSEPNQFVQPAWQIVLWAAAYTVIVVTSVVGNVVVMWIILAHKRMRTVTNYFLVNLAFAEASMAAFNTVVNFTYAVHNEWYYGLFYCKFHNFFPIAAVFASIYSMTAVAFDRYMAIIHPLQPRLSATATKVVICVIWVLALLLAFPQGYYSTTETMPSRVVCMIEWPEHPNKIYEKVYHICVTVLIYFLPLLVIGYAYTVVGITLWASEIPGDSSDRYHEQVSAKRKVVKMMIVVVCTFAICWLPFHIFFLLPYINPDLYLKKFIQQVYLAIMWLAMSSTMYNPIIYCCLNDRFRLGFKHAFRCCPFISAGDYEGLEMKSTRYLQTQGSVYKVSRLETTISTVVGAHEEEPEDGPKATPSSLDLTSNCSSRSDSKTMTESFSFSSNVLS
T5 sequence (P30547 whole entry): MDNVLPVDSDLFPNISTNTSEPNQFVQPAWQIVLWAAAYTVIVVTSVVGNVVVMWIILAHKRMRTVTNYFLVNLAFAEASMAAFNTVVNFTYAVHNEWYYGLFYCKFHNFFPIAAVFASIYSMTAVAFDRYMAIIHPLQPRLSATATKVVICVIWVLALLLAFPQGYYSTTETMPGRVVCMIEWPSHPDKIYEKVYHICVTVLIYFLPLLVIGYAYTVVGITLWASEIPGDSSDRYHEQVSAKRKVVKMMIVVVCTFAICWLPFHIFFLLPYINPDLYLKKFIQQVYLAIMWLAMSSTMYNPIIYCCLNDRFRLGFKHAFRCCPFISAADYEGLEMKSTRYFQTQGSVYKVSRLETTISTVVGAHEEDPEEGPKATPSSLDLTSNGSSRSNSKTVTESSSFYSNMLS

On to `COc1cc(C(=O)N2CCC(CCN3CCC(C(N)=O)(c4ccccc4)CC3)(c3ccc(Cl)c(Cl)c3)C2)cc(OC)c1OC` (single isomer, unassigned; (+)) [Example 20, (+)-1-[2-[3-(3,4-dichloro-phenyl)-1-(3,4,5-trimethoxy-benzoyl)-pyrrolidin-3-yl]-ethyl]-4-phenyl-piperidine-4-carboxylic acid amide], for which the “NK-1 RECEPTOR -SLOPE” value at NK1 receptor [1] is listed as 1.03 (0.78-1.28). Also, on NK2 receptor, the “NK-2 RECEPTOR -SLOPE” value is reported as 1.00 (0.63-1.37).
On NK-3 receptor, `COc1cccc(OC)c1C(=O)N1CCC(CCN2CCC(C(N)=O)(c3ccccc3)CC2)(c2ccc(Cl)c(Cl)c2)C1` (stereo not shown) [Example 5, 1-[2-[3-(3,4-dichloro-phenyl)-1-(2,6-dimethoxy-benzoyl)-pyrrolidin-3-yl]-ethyl]-4-phenyl-piperidine-4-carboxylic acid amide] had a pIC50 of 7.19. Moreover, the negative-log IC50 (pIC50) in assay [2] is 7.39. For the same compound, in assay [3] (setting [5]), the “DYSPNEA INCIDENCE” value was 66.7% (6/9), the “DYSPNEA ONSET” value was found to be 253 ± 47 s, the “MAXIMUM PRESSURE INCREASE (mmH2O)” value is 0.7 ± 0.1 mmH2O and the “SRE NUMBER*” value amounted to 4.4 ± 1.2. In addition, in assay [3] (setting [6]), the “DYSPNEA INCIDENCE” value is recorded as 85.7% (6/7), the “DYSPNEA ONSET” value was found to be 384 ± 85 s, the “MAXIMUM PRESSURE INCREASE (mmH2O)” value is recorded as 0.5 ± 0.1 mmH2O and the “SRE NUMBER*” value was 4.9 ± 1.9. The pIC50 on NK1 receptor [4] is 7.70.
